# Assay results taken from US7071161B2, “Variants of corticotropin releasing hormone receptor Type 1 and uses thereof” (The University of Tennessee Research Corporation, priority 2001, dated 2006).
# B1: CRH-R1h: human CRH receptor type 1 isoform with cryptic exon between exons 4 and 5; truncated protein with CRH-binding domain only (protein, listed as Homo sapiens)
# chain: MGGHPQLRLVKALLLLGLNPVSASLQDQHCESLSLASNISGLQCNASVDLIGTCWPRSPAGQLVVRPCPAFFYGVRYNTTNNGYRECLANGSWAARVNYSECQEILNEEEPGTQAQPGRAHRGGT
# modifications: amino acid sequence of human CRH-R1h gene GenBank Accession No. AF374231
# What was measured:
# CRH-R1 mRNA [1] = assay: CRH-R1 isoform expression by nested RT-PCR in treated HaCaT immortalized keratinocytes; format: cell-based, human; settings: 24 hours, result in words
# Experimental: (§1) In some experiments, SKMEL188, HaCaT and C4-1 cells were also treated with TPA, forskolin or a mixture of IBMX (3-isobutyl-1-methylxanthine) and dbcAMP (N6, 2′-O-dibutyryladenosine 3′:5′-cyclic monophosphate sodium) (all from Sigma). Briefly, the cells were transferred to 75 cm^2 flasks ( 10^6 cells/flask) and cultured for 24 hours in standard culture medium. Then the following compounds were added to the separate cultures: TPA (200 nM), forskolin (10^−5 M), IBMX (5×10^−4 M), and dbcAMP (10^−3 M). Controls were represented by untreated cultures. The cells were incubated for 24 hours, detached, collected by centrifugation, and dissolved in RNA isolation solution (Trizol reagent).
# (§2) Total RNA was extracted using a Trizol isolation kit (Gibco-BRL, Gaithersburg, Md.). The synthesis of first-strand cDNA was performed using the Superscript preamplification system (Gibco-BRL). Five μg of total RNA per reaction was reverse transcribed using oligo(dT) as the primer.
# (§3) Nested PCR was used to detect different CRH-R1 isoforms. The first round of amplification of the human CRH-R1 fragment spanning exons 2–7 was conducted using 2 μl of cDNA and primers P110: 5′-[…]-3′ (sense) (SEQ ID No. 15) and P111: 5′-[…]-3′ (antisense) (SEQ ID No. 16). An aliquot of the PCR mixture from the first round of amplification was transferred to a new tube, and a second round of PCR was conducted. […]
# CRH-R1 mRNA [2] = assay: CRH-R1 isoform expression by nested RT-PCR in treated SKMEL188 melanoma cells; format: cell-based; settings: human melanoma cells SKMEL188; 24 hours; result in words
# Experimental: as §1, §2, §3
# CRH-R1α = target: T1, CRH-R1α (Homo sapiens, UniProt P34998); assay: cAMP accumulation in CRF or urocortin-stimulated COS cells cotransfected with CRH-R1α and isoform e or h; format: cell-based; settings: coexpression of the isoform with CRH-R1α, FIG. 7C
# T1 construct: expressed in transfected cells; host or cells: COS cells, transient transfection with pCRFR1α
# T1 sequence (P34998 24-415): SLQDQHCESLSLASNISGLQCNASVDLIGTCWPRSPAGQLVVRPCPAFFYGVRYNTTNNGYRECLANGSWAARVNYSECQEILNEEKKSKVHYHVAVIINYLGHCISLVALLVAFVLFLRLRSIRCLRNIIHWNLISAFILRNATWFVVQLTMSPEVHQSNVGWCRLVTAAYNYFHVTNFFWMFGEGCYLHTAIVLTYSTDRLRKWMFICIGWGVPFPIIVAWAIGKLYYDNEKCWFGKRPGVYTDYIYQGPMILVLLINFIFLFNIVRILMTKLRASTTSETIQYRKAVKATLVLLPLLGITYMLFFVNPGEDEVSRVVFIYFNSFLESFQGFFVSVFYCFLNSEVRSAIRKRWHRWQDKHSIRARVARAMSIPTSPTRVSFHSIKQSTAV
# Experimental: COS cells were propagated in DMEM medium (GIBCO) supplemented with 10% Fetal Bovine serum and antibiotics (GIBCO). Ten thousand cells were routinely transfected in each well of opaque 96-well plate (Packard) by Lipophectamine (Invitrogen, Carlsbad, Calif.) according to the manufacturer's protocol.
# Receptor isoforms e and h were tested for their ability to produce soluble forms of the CRH receptor that would affect the activity of the most prevalent CRH-R1α isoform. To allow detection by immunoblotting, a cDNA for the V5 protein was attached to the cDNA for the isoforms in the constructs. The constructs were thus transfected into COS cells and tested as to whether the isoform messages were translatable, and whether cotransfection of CRH-R1α with CRH-R1e or h affects the activity of CRH-R1α.
# Cyclic AMP concentration was measured by a cAMP functional assay kit (Packard BioScience, Meriden, Conn.). Stimulated cells were washed 3 times by PBS and incubated for 1 hour in 25 μl of lysis buffer at room temperature. The signal was measured using a Fusion α instrument (Packard BioScience), and cAMP concentrations were recalculated from the standard curve.
Molecule,change of CRH-R1 splicing pattern versus untreated control (CRH-R1 mRNA [1]),change of CRH-R1 splicing pattern versus untreated control (CRH-R1 mRNA [2]),CRH or urocortin-stimulated cAMP accumulation mediated by CRF-R1α (CRH-R1α),CRH or urocortin-stimulated cAMP accumulation mediated by CRF-R1α (CRH-R1α; listed as CRF-R1h)
"CCCCCCCCCCCCCC(=O)O[C@@H]1[C@@H](C)[C@@]2(O)[C@@H](C=C(CO)C[C@]3(O)C(=O)C(C)=C[C@@H]23)[C@@H]2C(C)(C)[C@]12OC(C)=O [TPA, phorbol 12-myristate 13-acetate]",induced insertion of a 110 bp fragment between exons 4 and 5 of CRH-R1,shifted the CRH-R1 splicing pattern from the CRH-R1d to the CRH-R1α isoform,–,–
B1,–,–,inhibits,stimulates
